Laboratory results: ChEMBL document CHEMBL1255263, “Activity of the Diaminopyrimidine AR-709 against recently collected multidrug-resistant isolates of invasive Streptococcus pneumoniae from North America” (2008)
In brackets after ≈: the same amount, converted by molar mass.

Tests used:
Streptococcus pneumoniae [1] = experiment: Antibacterial activity against multidrug resistant Streptococcus pneumoniae […] assessed as resistant strains by CLSI microdilution susceptibility testing method; format: functional
Streptococcus pneumoniae [2] = experiment: Antibacterial activity against multidrug resistant Streptococcus pneumoniae […] by CLSI microdilution susceptibility testing method; format: functional

SMILES: C[C@@H](O)[C@H]1C(=O)N2C(C(=O)O)=C(S[C@@H]3CN[C@H](C(=O)N(C)C)C3)[C@H](C)[C@H]12 [MEROPENEM]
- Activity (Streptococcus pneumoniae [1]): 75.9%
- MIC50 (Streptococcus pneumoniae [2]): 0.5 µg/mL (≈ 1.3 µM)
- MIC90 (Streptococcus pneumoniae [2]): 1 µg/mL (≈ 2.61 µM)

SMILES: C[C@H]1COc2c(N3CCN(C)CC3)c(F)cc3c(=O)c(C(=O)O)cn1c23.C[C@H]1COc2c(N3CCN(C)CC3)c(F)cc3c(=O)c(C(=O)O)cn1c23.O [LEVOFLOXACIN]
- Activity (Streptococcus pneumoniae [1]): 21%
- MIC50 (Streptococcus pneumoniae [2]): 1 µg/mL
- MIC90 (Streptococcus pneumoniae [2]): > 8 µg/mL

SMILES: COc1cc(Cc2cnc(N)nc2N)c2cc(Cc3c(C(=O)N(C)C)[nH]c4ccc(Cl)cc34)oc2c1OC
- MIC50 (Streptococcus pneumoniae [2]): 0.25 µg/mL (≈ 0.467 µM)
- MIC90 (Streptococcus pneumoniae [2]): 0.5 µg/mL (≈ 0.935 µM)

SMILES: CCC[C@@H]1C[C@@H](C(=O)N[C@@H]([C@H]2O[C@H](SC)[C@H](O)[C@@H](O)[C@H]2O)[C@H](C)Cl)N(C)C1 [CLINDAMYCIN]
- Activity (Streptococcus pneumoniae [1]): 34.8%
- MIC50 (Streptococcus pneumoniae [2]): 0.06 µg/mL (≈ 0.141 µM)
- MIC90 (Streptococcus pneumoniae [2]): > 8 µg/mL

SMILES: CC1(C)S[C@@H]2[C@H](NC(=O)Cc3ccccc3)C(=O)N2[C@H]1C(=O)O [PENICILLIN G]
- Activity (Streptococcus pneumoniae [1]): 85.7%
- MIC50 (Streptococcus pneumoniae [2]): 4 µg/mL (≈ 12 µM)
- MIC90 (Streptococcus pneumoniae [2]): 4 µg/mL (≈ 12 µM)

SMILES: C[C@H]1c2cccc(O)c2C(=O)C2=C(O)[C@]3(O)C(=O)C(C(N)=O)=C(O)[C@@H](N(C)C)[C@@H]3[C@@H](O)[C@@H]21.O [DOXYCYCLINE]
- Activity (Streptococcus pneumoniae [1]): 40.6%
- MIC50 (Streptococcus pneumoniae [2]): 0.12 µg/mL
- MIC90 (Streptococcus pneumoniae [2]): 8 µg/mL

SMILES: CC[C@H]1OC(=O)[C@H](C)[C@@H](O[C@H]2C[C@@](C)(OC)[C@@H](O)[C@H](C)O2)[C@H](C)[C@@H](O[C@@H]2O[C@H](C)C[C@H](N(C)C)[C@H]2O)[C@](C)(O)C[C@@H](C)C(=O)[C@H](C)[C@@H](O)[C@]1(C)O [ERYTHROMYCIN]
- Activity (Streptococcus pneumoniae [1]): 83.5%
- MIC50 (Streptococcus pneumoniae [2]): 8 µg/mL (≈ 10.9 µM)
- MIC90 (Streptococcus pneumoniae [2]): > 32 µg/mL

SMILES: CC1(C)S[C@@H]2[C@H](NC(=O)[C@H](N)c3ccc(O)cc3)C(=O)N2[C@H]1C(=O)O [AMOXICILLIN]
- Activity (Streptococcus pneumoniae [1]): 48.2%
- MIC50 (Streptococcus pneumoniae [2]): 2 µg/mL (≈ 5.47 µM)
- MIC90 (Streptococcus pneumoniae [2]): 8 µg/mL (≈ 21.9 µM)

SMILES: CO/N=C(\C(=O)N[C@@H]1C(=O)N2C(C(=O)O)=C(COC(C)=O)CS[C@H]12)c1csc(N)n1 [CEFOTAXIME]
- Activity (Streptococcus pneumoniae [1]): 41.1%
- MIC50 (Streptococcus pneumoniae [2]): 1 µg/mL (≈ 2.2 µM)
- MIC90 (Streptococcus pneumoniae [2]): 2 µg/mL (≈ 4.39 µM)
